pIC50, pKd: −log10 of the molar value.

This test has as its target Cathepsin S (Homo sapiens, UniProt P25774). In words: Inhibition of human cathepsin S.

Cathepsin S, sequence (P25774 whole entry): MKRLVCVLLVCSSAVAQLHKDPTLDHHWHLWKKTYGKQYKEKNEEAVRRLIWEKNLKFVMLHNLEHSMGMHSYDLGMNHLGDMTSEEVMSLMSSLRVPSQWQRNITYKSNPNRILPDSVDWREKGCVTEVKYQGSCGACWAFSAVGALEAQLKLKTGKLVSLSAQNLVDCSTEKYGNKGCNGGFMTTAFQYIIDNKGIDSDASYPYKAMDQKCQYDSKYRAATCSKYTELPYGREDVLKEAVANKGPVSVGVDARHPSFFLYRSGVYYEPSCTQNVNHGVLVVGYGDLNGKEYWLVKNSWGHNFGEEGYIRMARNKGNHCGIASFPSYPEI

The pIC50 is −log10 of the IC50, conventionally taken in molar units. Low readings indicate a high IC50, high ones a low IC50. The term pKd denotes the negative decadic logarithm of the Kd, by convention in mol/L. Read a low pKd as a large Kd. Turning to `N#C[C@@]1(NC(=O)[C@@H](CC(=O)N2CCOCC2)CC2Cc3ccccc3C2)CCN(C2CCCCC2)C1`, the pIC50 is 7.38 and the pKd is 7.64.
The like results for `N#C[C@H](COCc1ccc(Cl)cc1)NC(=O)[C@@H](CC(=O)N1CCOCC1)CC1CCCCC1` were, in that order, 7.21 and 8.31.
In turn, `N#C[C@H](CCc1ccccc1)NC(=O)[C@@H](CC(=O)N1CCOCC1)CC1CCCCC1` gave a pIC50 of 6.77 and a pKd of 7.60.
With `N#CC1(NC(=O)[C@@H](CC(=O)N2CCOCC2)CC2CCCCC2)CCN(Cc2ccccc2)CC1`, the pIC50 is 6.68 and the pKd is 7.28.
`CN1CCC(C#N)(NC(=O)[C@@H](CC(=O)N2CCOCC2)CC2CCCCC2)CC1` gave a negative logarithm of the IC50 (pIC50) of 6.60 and a pKd of 6.75.
With `N#C[C@@]1(NC(=O)[C@@H](CC(=O)N2CCOCC2)CC2CCCCC2)CCN(C2CCCCC2)C1`, the negative-log IC50 (pIC50) is 7.64 and the pKd is 7.75.
The like results for `N#C[C@]1(NC(=O)[C@@H](CC(=O)N2CCOCC2)CC2CCCCC2)CCN(CC2CCCCC2)C1` were, in that order, 7.39 and 7.86.
The like results for `N#C[C@]1(NC(=O)[C@@H](CC(=O)N2CCOCC2)CC2CCCCC2)CCN(Cc2ccccc2)C1` were, in that order, 7.54 and 8.44.
The like results for `N#C[C@@]1(NC(=O)[C@@H](CC(=O)N2CCOCC2)CC2CCCCC2)CCN(CCc2ccccc2)C1` were, in that order, 7.65 and 7.82.
In turn, `CC1CCC(C[C@H](CC(=O)N2CCOCC2)C(=O)N[C@]2(C#N)CCN(C3CCCCC3)C2)CC1` (some centres undefined) had a pIC50 of 7.85 and a pKd of 7.86.
`N#C[C@@]1(NC(=O)[C@@H](CC(=O)N2CCOCC2)CC2CCc3ccccc3C2)CCN(C2CCCCC2)C1` (some centres undefined) showed a pIC50 of 8.72 and a negative-log Kd (pKd) of 8.27.
Regarding `N#C[C@@]1(NC(=O)[C@@H](CC(=O)N2CCOCC2)CC2CCC(c3ccccc3)CC2)CCN(C2CCCCC2)C1` (some centres undefined), the negative-log IC50 (pIC50) is 5.50.
Take `CC(C)CN1CC[C@@](C#N)(NC(=O)[C@@H](CC(=O)N2CCOCC2)CC2CCCCC2)C1`: the pIC50 was 7.41 and the negative logarithm of the Kd (pKd) is 7.27.
On to `N#C[C@@]1(NC(=O)[C@@H](CC(=O)N2CCOCC2)CC2CCCCC2)CCN(C2CCCC2)C1`, for which the negative-log IC50 (pIC50) was 7.12.
Molecule `N#C[C@@]1(NC(=O)[C@@H](CC(=O)N2CCOCC2)CC2CCCCC2)CCN(CC2CC2)C1` gave a negative logarithm of the IC50 (pIC50) of 7.66 and a pKd of 7.70.
The like results for `N#C[C@H](COCc1ccccc1)NC(=O)[C@@H](CC(=O)N1CCOCC1)CC1CCCCC1` were, in that order, 7.43 and 8.36.
The like results for `N#CC1(NC(=O)[C@@H](CC(=O)N2CCOCC2)CC2CCCCC2)CC1` were, in that order, 6.87 and 7.92.
The like results for `CN1CC[C@@](C#N)(NC(=O)[C@@H](CC(=O)N2CCOCC2)CC2CCCCC2)C1` were, in that order, 6.81 and 6.79.
For `CC(C)N1CC[C@@](C#N)(NC(=O)[C@@H](CC(=O)N2CCOCC2)CC2CCCCC2)C1`, the pIC50 is 7.18 and the pKd is 7.22.
The like results for `N#C[C@@]1(NC(=O)[C@@H](CC(=O)N2CCOCC2)CC2CCCC2)CCN(C2CCCCC2)C1` were, in that order, 7.20 and 7.23.
On to `CC1(C[C@H](CC(=O)N2CCOCC2)C(=O)N[C@]2(C#N)CCN(C3CCCCC3)C2)CCCCC1`, for which the pIC50 was 7.33 and the pKd is 7.11.
Consider `N#C[C@@]1(NC(=O)[C@@H](CC(=O)N2CCOCC2)CC2CCCCC2)CCNC1`, for which the pIC50 is 6.85 and the pKd was 6.91.
In turn, `N#C[C@@]1(NC(=O)[C@@H](CC(=O)N2CCOCC2)CC2CCCCC2)CCN(C2CCCCCC2)C1` had a pIC50 of 7.64 and a negative-log Kd (pKd) of 7.96.

The values above are taken from ChEMBL document CHEMBL1147920, “Identification of a novel class of succinyl-nitrile-based Cathepsin S inhibitors” (Bioorg Med Chem Lett, 2007).
